Results on 33 compounds are retold here after US9580449B2, “Compositions and methods for the production of pyrimidine and pyridine compounds with BTK inhibitory activity” (Merck Patent GmbH, priority 2011, dated 2017).

The target of the assay is full-length human BTK (Homo sapiens (Human), UniProt Q06187). Put plainly: BTK IC50 enzyme assay (microfluidic off-chip mobility shift kinase assay). It counts as biochemical. The following applies: incubated for 90 min. at 27 C; read-out: Time Dependent BTK Enzyme Assay IC50. As to the method: The following describes a microfluidic, off-chip mobility shift kinase assay used to measure inherent potency of compounds against BTK enzyme. Compounds described by embodiments of the present invention were assayed using this protocol and the data from the same is recorded in Table 2 within the column labeled: “Time Dependent BTK Enzyme Assay IC50”.
Sequence of full-length human BTK (Q06187 whole entry): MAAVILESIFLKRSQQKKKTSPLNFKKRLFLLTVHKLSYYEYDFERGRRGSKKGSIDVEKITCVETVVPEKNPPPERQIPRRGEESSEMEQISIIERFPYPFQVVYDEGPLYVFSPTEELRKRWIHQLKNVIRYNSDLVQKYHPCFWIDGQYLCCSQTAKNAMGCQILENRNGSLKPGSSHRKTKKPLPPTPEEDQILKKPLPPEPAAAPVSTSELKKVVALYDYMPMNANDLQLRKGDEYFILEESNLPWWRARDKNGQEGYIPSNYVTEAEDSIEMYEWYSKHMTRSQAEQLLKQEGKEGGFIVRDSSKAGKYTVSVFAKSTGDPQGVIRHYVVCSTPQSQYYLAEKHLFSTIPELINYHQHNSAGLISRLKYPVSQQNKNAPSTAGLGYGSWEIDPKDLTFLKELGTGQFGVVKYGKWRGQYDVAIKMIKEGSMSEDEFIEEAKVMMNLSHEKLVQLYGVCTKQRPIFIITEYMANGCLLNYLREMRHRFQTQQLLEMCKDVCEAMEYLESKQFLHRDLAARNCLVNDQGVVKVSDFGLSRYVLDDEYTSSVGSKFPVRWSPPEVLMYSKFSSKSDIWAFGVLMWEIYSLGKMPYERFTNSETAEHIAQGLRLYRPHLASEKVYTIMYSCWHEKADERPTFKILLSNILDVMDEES
Stopped reactions were monitored at −2 PSI, −3000 V/−700 V in a LabChip 3000 plate reader from Caliper Life Sciences, a PerkinElmer Company (Hopkinton, Mass.), and the activity was measured by off-chip mobility shift assay measuring the charge/mass difference between substrate and product resulting from peptide phosphorylation. IC50 and efficacy were determined by plotting log [Inhibitor] vs. % Activity in GeneData Screener (Basel, Switzerland). […] I<1 uM and II>1 uM.
As to `C=CC(=O)N[C@H]1C[C@H](O)C[C@@H](Nc2ncnc(N)c2-c2ccc(Oc3ccccc3)cc2)C1` (racemic) [A188, N-((1R,3S,5R)-3-((6-amino-5-(4-phenoxyphenyl)pyrimidin-4-yl)amino)-5-hydroxycyclohexyl)acrylamide], the IC50 was less than 1000 nM.

On to `C=CC(=O)N1CC[C@@H](CNc2ncnc(N)c2-c2ccc(Oc3ccc(C#N)cc3)cc2)[C@H](O)C1` (racemic) [A199, 4-(4-(4-((((3S,4S)-1-acryloyl-3-hydroxypiperidin-4-yl)methyl)amino)-6-aminopyrimidin-5-yl)phenoxy)benzonitrile], for which the IC50 is less than 1000 nM. Regarding `C=CC(=O)N1CC[C@@H](O)[C@H](Nc2ncnc(N)c2-c2ccc(Oc3ccccc3)cc2)C1` (racemic) [A210, 1-((3R,4R)-3-((6-amino-5-(4-phenoxyphenyl)pyrimidin-4-yl)amino)-4-hydroxypiperidin-1-yl)prop-2-en-1-one], the IC50 is less than 1000 nM. For the compound `CN(C)C/C=C/C(=O)N[C@@H]1CCC[C@H](Nc2ncnc(N)c2-c2ccc(Oc3ccccc3)cc2)C1` (relative stereo) [A63, (E)-N-(cis-3-((6-amino-5-(4-phenoxyphenyl)pyrimidin-4-yl)amino)cyclohexyl)-4-(dimethylamino)but-2-enamide], the IC50 was less than 1000 nM.

Regarding `C=CC(=O)NCC1CCN(c2ncnc(N)c2-c2ccc(Oc3ccccc3)cc2)CC1` [A7, N-((1-(6-amino-5-(4-phenoxyphenyl)pyrimidin-4-yl)piperidin-4-yl)methyl)acrylamide], the concentration for half-maximal inhibition (IC50) was greater than 1000 nM. As to `CC#CC(=O)N1CCC(COc2ncnc(N)c2-c2ccc(Oc3ccccc3)cc2)CC1` [A9, 1-(4-(((6-amino-5-(4-phenoxyphenyl)pyrimidin-4-yl)oxy)methyl)piperidin-1-yl)but-2-yn-1-one], the 50% inhibitory concentration (IC50) was less than 100 nM.

For the compound `COCCN(C)C/C=C/C(=O)N1CCC(CNc2ncnc(N)c2-c2ccc(Oc3ccccc3)cc2)CC1` [A11, (E)-1-(4-(((6-amino-5-(4-phenoxyphenyl)pyrimidin-4-yl)amino)methyl)piperidin-1-yl)-4-((2-methoxyethyl)(methyl)amino)but-2-en-1-one], the concentration for half-maximal inhibition (IC50) is greater than 1000 nM. Take `C/C=C/C(=O)N1CCC(CNc2ncnc(N)c2-c2ccc(Oc3ccccc3)cc2)CC1` [A13, (E)-1-(4-(((6-amino-5-(4-phenoxyphenyl)pyrimidin-4-yl)amino)methyl)piperidin-1-yl)but-2-en-1-one]: the IC50 was greater than 1000 nM. As for `C=CC(=O)N1CCC(CCNc2ncnc(N)c2-c2ccc(Oc3ccccc3)cc2)CC1` [A16, 1-(4-(2-((6-amino-5-(4-phenoxyphenyl)pyrimidin-4-yl)amino)ethyl)piperidin-1-yl)prop-2-en-1-one], the figure is greater than 1000 nM; as for `C=CC(=O)N1CCCC(COc2ncnc(N)c2-c2ccc(Oc3ccccc3)cc2)C1` (stereo not drawn) [A17, 1-(3-(((6-amino-5-(4-phenoxyphenyl)pyrimidin-4-yl)oxy)methyl)piperidin-1-yl)prop-2-en-1-one], less than 100 nM. Under `C=CC(=O)NCCNc1ncnc(N)c1-c1ccc(Oc2ccccc2)cc1` [A18, N-(2-((6-amino-5-(4-phenoxyphenyl)pyrimidin-4-yl)amino)ethyl)acrylamide] stands less than 1000 nM; under `C=CC(=O)N1CC[C@@H](Oc2ncnc(N)c2-c2ccc(Oc3ccccc3)cc2)C1` [A19, (R)-1-(3-((6-amino-5-(4-phenoxyphenyl)pyrimidin-4-yl)oxy)pyrrolidin-1-yl)prop-2-en-1-one], less than 100 nM. Regarding `C=CC(=O)NC1(CNc2ncnc(N)c2-c2ccc(Oc3ccccc3)cc2)CCCC1` [A20, N-(1-(((6-amino-5-(4-phenoxyphenyl)pyrimidin-4-yl)amino)methyl)cyclopentyl)acrylamide], the IC50 was greater than 1000 nM.

With `CC1=CC(C)=[N+]2C1=Cc1ccc(CCC(=O)N3CCN(C/C=C/C(=O)Nc4cccc(Oc5ncnc(N)c5-c5ccc(Oc6ccccc6)cc5)c4)CC3)n1[B-]2(F)F` [A24, (E)-7-(3-(4-(4-((3-((6-amino-5-(4-phenoxyphenyl)pyrimidin-4-yl)oxy)phenyl)amino)-4-oxobut-2-en-1-yl)piperazin-1-yl)-3-oxopropyl)-5,5-difluoro-1,3-dimethyl-5H-dipyrrolo[1,2-c:2′,1′-f][1,3,2]diazaborinin-4-ium-5-uide], the IC50 was greater than 1000 nM. On to `C=CC(=O)N1CCC(CNc2nc(N)ncc2-c2ccc(Oc3ccccc3)cc2)CC1` [A25, 1-(4-(((2-amino-5-(4-phenoxyphenyl)pyrimidin-4-yl)amino)methyl)piperidin-1-yl)prop-2-en-1-one], for which the half-inhibitory concentration (IC50) is greater than 1000 nM.

As for `C=CC(=O)NCCOc1ncnc(N)c1-c1ccc(Oc2ccccc2)cc1` [A27, N-(2-((6-amino-5-(4-phenoxyphenyl)pyrimidin-4-yl)oxy)ethyl)acrylamide], the 50% inhibitory concentration (IC50) was greater than 1000 nM. Under `C=CC(=O)N1CCC(CNc2ncnc(N)c2-c2cnn(Cc3ccccc3)c2)CC1` [A33, 1-(4-(((6-amino-5-(1-benzyl-1H-pyrazol-4-yl)pyrimidin-4-yl)amino)methyl)piperidin-1-yl)prop-2-en-1-one] stands greater than 1000 nM; under `CC1=CC(C)=[N+]2C1=Cc1ccc(CCC(=O)NCCN3CCN(C/C=C/C(=O)Nc4cccc(Oc5ncnc(N)c5-c5ccc(Oc6ccccc6)cc5)c4)CC3)n1[B-]2(F)F` [A35, (E)-7-(3-((2-(4-(4-((3-((6-amino-5-(4-phenoxyphenyl)pyrimidin-4-yl)oxy)phenyl)amino)-4-oxobut-2-en-1-yl)piperazin-1-yl)ethyl)amino)-3-oxopropyl)-5,5-difluoro-1,3-dimethyl-5H-dipyrrolo[1,2-c:2′,1′-f][1,3,2]diazaborinin-4-ium-5-uide], […]; under `C=CC(=O)N1CCC(CNc2nc(C)nc(N)c2-c2ccc(Oc3ccccc3)cc2)CC1` [A36, 1-(4-(((6-amino-2-methyl-5-(4-phenoxyphenyl)pyrimidin-4-yl)amino)methyl)piperidin-1-yl)prop-2-en-1-one], greater than 1000 nM. As for `Nc1ncnc(Oc2cccc(N3CC=CC3=O)c2)c1-c1ccc(Oc2ccccc2)cc1` [A40, 1-(3-((6-amino-5-(4-phenoxyphenyl)pyrimidin-4-yl)oxy)phenyl)-1H-pyrrol-2(5H)-one], the IC50 is less than 1000 nM. With `C=CC(=O)N1CCC(CNc2ncnc(N)c2-c2ccc(Cc3ccccc3)cc2)CC1` [A41, 1-(4-(((6-amino-5-(4-benzylphenyl)pyrimidin-4-yl)amino)methyl)piperidin-1-yl)prop-2-en-1-one], the half-inhibitory concentration (IC50) was less than 100 nM. With `Nc1ncnc(NCC2CCN(C(=O)C3=CCC3)CC2)c1-c1ccc(Oc2ccccc2)cc1` [A42, (4-(((6-amino-5-(4-phenoxyphenyl)pyrimidin-4-yl)amino)methyl)piperidin-1-yl)(cyclobut-1-en-1-yl)methanone], the IC50 is less than 1000 nM. In the case of `C/C=C\C(=O)N1CCC(COc2ncnc(N)c2-c2ccc(Oc3ccccc3)cc2)CC1` [A43, (Z)-1-(4-(((6-amino-5-(4-phenoxyphenyl)pyrimidin-4-yl)oxy)methyl)piperidin-1-yl)but-2-en-1-one], the 50% inhibitory concentration (IC50) is less than 1000 nM. Regarding `C=CC(=O)N1CCC(CN(C)c2nc(C)nc(N)c2-c2ccc(Oc3ccccc3)cc2)CC1` [A44, 1-(4-(((6-amino-2-methyl-5-(4-phenoxyphenyl)pyrimidin-4-yl)(methyl)amino)methyl)piperidin-1-yl)prop-2-en-1-one], the half-inhibitory concentration (IC50) is greater than 1000 nM. Turning to `C#CC(=O)N1CCC(CNc2ncnc(N)c2-c2ccc(Oc3ccccc3)cc2)CC1` [A46, 1-(4-(((6-amino-5-(4-phenoxyphenyl)pyrimidin-4-yl)amino)methyl)piperidin-1-yl)prop-2-yn-1-one], the IC50 is less than 100 nM.

For the compound `C=CC(=O)N1CCC(CN(C)c2ncnc(N)c2-c2ccc(Oc3ccccc3)cc2)CC1` [A47, 1-(4-(((6-amino-5-(4-phenoxyphenyl)pyrimidin-4-yl)(methyl)amino)methyl)piperidin-1-yl)prop-2-en-1-one], the IC50 is less than 1000 nM. For the compound `C=CC(=O)NCCCCNc1ncnc(N)c1-c1ccc(Oc2ccccc2)cc1` [A50, N-(4-((6-amino-5-(4-phenoxyphenyl)pyrimidin-4-yl)amino)butyl)acrylamide], the IC50 was less than 1000 nM. As for `Nc1ncnc(NCC2CCN(C(=O)C(O)CO)CC2)c1-c1ccc(Oc2ccccc2)cc1` (stereo not drawn) [A56, 1-(4-(((6-amino-5-(4-phenoxyphenyl)pyrimidin-4-yl)amino)methyl)piperidin-1-yl)-2,3-dihydroxypropan-1-one], the figure is greater than 1000 nM; as for `C=CS(=O)(=O)Nc1cccc(Oc2ncnc(N)c2-c2ccc(Oc3ccccc3)cc2)c1` [A58, N-(3-((6-amino-5-(4-phenoxyphenyl)pyrimidin-4-yl)oxy)phenyl)ethenesulfonamide], less than 100 nM; as for `C=CC(=O)NCCCNc1ncnc(N)c1-c1ccc(Oc2ccccc2)cc1` [A59, N-(3-((6-amino-5-(4-phenoxyphenyl)pyrimidin-4-yl)amino)propyl)acrylamide], less than 1000 nM.

Regarding `C=CC(=O)Nc1cncc(Oc2ncnc(N)c2-c2ccc(Oc3ccccc3)cc2)c1` [A60, N-(5-((6-amino-5-(4-phenoxyphenyl)pyrimidin-4-yl)oxy)pyridin-3-yl)acrylamide], the IC50 is less than 100 nM.

Regarding `C#CC(=O)N1CC[C@H](CNc2ncnc(N)c2-c2ccc(Oc3ccccc3)cc2)C1` [A61, (R)-1-(3-(((6-amino-5-(4-phenoxyphenyl)pyrimidin-4-yl)amino)methyl)pyrrolidin-1-yl)prop-2-yn-1-one], the half-inhibitory concentration (IC50) was less than 100 nM. Regarding `CN(C)C/C=C/C(=O)N1CC[C@H](CNc2ncnc(N)c2-c2ccc(Oc3ccccc3)cc2)C1` [A62, (R,E)-1-(3-(((6-amino-5-(4-phenoxyphenyl)pyrimidin-4-yl)amino)methyl)pyrrolidin-1-yl)-4-(dimethylamino)but-2-en-1-one], the IC50 is less than 1000 nM.
